Holding throughout (test): NCI anticancer screen, dose series, 48 h
Experiment [1] deals with A498.
Experiment [2] deals with HCC 2998.
Experiment [3] concerns HCT-116.
In experiment [4] the test system is HL-60.
For experiment [5], the system named is HOP-62.
Experiment [6] concerns KM12.
Experiment [7] has as its system MDA-MB-435.
Experiment [8] relates to MOLT-4.
Experiment [9] relates to NCI-H23.
Experiment [10] deals with OVCAR-3.
The test system of experiment [11] is OVCAR-8.
For experiment [12], the system named is PC-3.
For experiment [13], the system named is RPMI-8226.
Experiment [14] has as its system RXF 393.
Experiment [15] relates to SK-MEL-5.
Experiment [16] concerns SR.
In experiment [17] the test system is SW-620.
The test system of experiment [18] is U-251.
The test system of experiment [19] is UO-31.
The test system of experiment [20] is IGROV-1.

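All cell lines were grown in 96-well plates and treated with compound for 48 hours. Abbreviation: GI50, concentration required for 50% inhibition of growth.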 The source made the active and inactive calls. Cut-off read from the data, not from the text of the source: active = GI50 up to about 1.1 µM and inactive = higher. Bounds are passed on as bounds.

On to `Cc1ncc([N+](=O)[O-])n1CCN(C)CCCCn1ccnc1[N+](=O)[O-]`, for which the GI50 in [1], in experiment [2], in experiment [3], in experiment [4], in experiment [5] and in experiment [6] was > 100 µM (inactive) throughout. The GI50 in [7], in experiment [8], in experiment [9], in [10], in experiment [11] and in [12] was > 100 µM (inactive) throughout. Further, the GI50 in [13], in experiment [14], in [15], in experiment [16], in experiment [17] and in experiment [18] was > 100 µM (inactive) throughout. The GI50 in experiment [19] was > 100 µM (inactive).

As to `CCC(C)c1cnc(CC(C)C)c(=O)[nH]1` (stereo unspecified), the GI50 in experiment [1], in experiment [2], in experiment [3], in [5], in experiment [20] and in experiment [6] was > 100 µM (inactive) throughout. Further, the GI50 in experiment [7], in experiment [8], in experiment [9], in [10], in [11] and in experiment [12] was > 100 µM (inactive) throughout. In addition, the GI50 in experiment [13], in [14], in experiment [15], in experiment [16], in [17] and in [18] was > 100 µM (inactive) in each case. Also, the GI50 in experiment [19] is > 100 µM (inactive).

Turning to `O=C1c2cc(Cl)ccc2N=C(NCCCl)C2CSCN12` (stereo unspecified), the GI50 in experiment [1], in experiment [2], in experiment [3], in experiment [5], in experiment [20] and in experiment [6] was > 100 µM (inactive) each time. Further, the GI50 in [7], in experiment [8], in experiment [10], in experiment [11], in [12] and in experiment [13] was > 100 µM (inactive) in each case. In addition, the GI50 is > 100 µM (inactive) in experiment [14]; > 100 µM (inactive) in [15]; 52.8 µM (inactive) in [16]; > 100 µM (inactive) in [17]; > 100 µM (inactive) in experiment [18]; > 100 µM (inactive) in experiment [19].

On to `c1ccc2c(c1)ccc1cc3cc(NCCCCNc4ccc5nc6c(ccc7ccccc76)cc5c4)ccc3nc12`, for which the GI50 in experiment [1] was 1.17 µM (inactive); in experiment [3], 0.176 µM (active); in experiment [5], 0.212 µM (active); in experiment [20], 1.41 µM (inactive); in experiment [6], 0.236 µM (active); in [7] it was 1.83 µM (inactive). In addition, the GI50 in experiment [8] was 0.184 µM (active); in experiment [9] it was 2 µM (inactive); in experiment [10], 1.99 µM (inactive); in experiment [11], 0.167 µM (active); in experiment [12], 1.31 µM (inactive); in experiment [13], 0.323 µM (active). Moreover, the GI50 in [14] is 1.58 µM (inactive); in experiment [15], 1.32 µM (inactive); in experiment [16], 0.0179 µM (active); in experiment [17], 0.195 µM (active); in [18], 0.199 µM (active); in experiment [19], 1.21 µM (inactive).

With `N[C@H](C(=O)O)[C@@H]1CC(Br)=NO1`, the GI50 in experiment [1] was 18.1 µM (inactive); in [2] it was 22.7 µM (inactive); in [3] it was 5.6 µM (inactive); in [4], > 48.4 µM (inactive); in experiment [5] it was 12.2 µM (inactive); in experiment [20] it was 19 µM (inactive). The GI50 was 10.6 µM (inactive) in experiment [6]; 19.7 µM (inactive) in experiment [7]; 22.6 µM (inactive) in [8]; > 35.7 µM (inactive) in experiment [9]; 16.5 µM (inactive) in [10]; > 25 µM (inactive) in experiment [11]. For the same molecule, the GI50 was 23.6 µM (inactive) in experiment [12]; 11.9 µM (inactive) in experiment [14]; 14.5 µM (inactive) in experiment [15]; 3.66 µM (inactive) in experiment [16]; 5.87 µM (inactive) in experiment [17]; 10.4 µM (inactive) in experiment [18]. In addition, in [19], the GI50 is 6.46 µM (inactive).

On to `C/C(=N\Nc1nc2ccccc2s1)c1ccncn1`, for which the GI50 in [1] was > 100 µM (inactive); in [2], 4.88 µM (inactive); in experiment [3] it was 0.532 µM (active); in experiment [5], 2.28 µM (inactive); in [20] it was 0.485 µM (active); in experiment [6] it was 1.42 µM (inactive). Moreover, the GI50 is 2.69 µM (inactive) in [7]; 0.145 µM (active) in [8]; 0.56 µM (active) in [9]; 0.366 µM (active) in [10]; 0.286 µM (active) in experiment [11]; 2.06 µM (inactive) in experiment [12]. Besides, the GI50 in experiment [13] is 1 µM (active); in [14] it was 7.74 µM (inactive); in [15] it was 0.621 µM (active); in experiment [16], 0.641 µM (active); in [17], 0.229 µM (active); in experiment [18], 1.3 µM (inactive). Moreover, the GI50 in experiment [19] is 0.387 µM (active).

As to `O=C1C2CCCCC2C(=O)N1n1c(Cc2ccccc2)n[nH]c1=O` (stereo unspecified), the GI50 in [1], in experiment [2], in experiment [3], in experiment [5], in experiment [20] and in experiment [6] was > 100 µM (inactive) in each case. The GI50 in experiment [7], in experiment [8], in experiment [9], in experiment [10], in experiment [11] and in [12] was > 100 µM (inactive) throughout. Moreover, the GI50 in experiment [13], in experiment [14], in [15], in experiment [16], in experiment [17] and in [18] was > 100 µM (inactive) each time. Further, in [19], the GI50 is > 100 µM (inactive).

With `O=C1Cc2c(-c3cccs3)cc(-c3ccccc3)nc2-c2ccccc2N1`, the GI50 is > 100 µM (inactive) in experiment [1]; 47.3 µM (inactive) in experiment [2]; 32.9 µM (inactive) in [3]; 24.7 µM (inactive) in experiment [5]; 13.7 µM (inactive) in experiment [20]; 14 µM (inactive) in [6]. For the same molecule, the GI50 in [7] is 78 µM (inactive); in [8], > 100 µM (inactive); in experiment [9], > 100 µM (inactive); in experiment [10] it was 33.4 µM (inactive); in [11], 1.45 µM (inactive); in [12] it was 47.1 µM (inactive). In addition, the GI50 in experiment [13] was > 100 µM (inactive); in experiment [14], 32.8 µM (inactive); in experiment [15], 19.5 µM (inactive); in experiment [16] it was > 100 µM (inactive); in experiment [17], > 100 µM (inactive); in experiment [18], > 10 µM (inactive). Besides, the GI50 in experiment [19] is > 100 µM (inactive).

On to `O=C(Cc1ccccc1)N/N=C(/CCN1CCCC1)CC(c1ccccc1)c1c(O)c2ccccc2oc1=O` (stereo unspecified), for which the GI50 is 28 µM (inactive) in [1]; 95.1 µM (inactive) in experiment [2]; 80.2 µM (inactive) in experiment [3]; 39.8 µM (inactive) in experiment [4]; > 100 µM (inactive) in [20]; > 100 µM (inactive) in experiment [6]. Further, the GI50 is > 100 µM (inactive) in experiment [7]; 46.6 µM (inactive) in experiment [8]; 55.7 µM (inactive) in experiment [9]; > 100 µM (inactive) in experiment [10]; > 100 µM (inactive) in experiment [11]; > 100 µM (inactive) in experiment [12]. The GI50 in experiment [13] was 39.7 µM (inactive); in experiment [15], > 100 µM (inactive); in experiment [16], 21.4 µM (inactive); in experiment [17], > 100 µM (inactive); in experiment [18], > 100 µM (inactive); in experiment [19] it was > 100 µM (inactive).

On to `COC(=O)C(/C(=N/N)C(=O)Nc1cc(Cl)c(Cl)cc1Cl)c1nc2ccc(Cl)cc2nc1O` (stereo unspecified), for which the GI50 in experiment [1] is > 100 µM (inactive); in [3], > 100 µM (inactive); in experiment [4], > 100 µM (inactive); in experiment [5] it was > 100 µM (inactive); in experiment [20], 45 µM (inactive); in [6], > 100 µM (inactive). Besides, the GI50 was > 100 µM (inactive) in experiment [7]; 0.0515 µM (active) in experiment [8]; > 100 µM (inactive) in experiment [9]; 95.3 µM (inactive) in experiment [10]; > 100 µM (inactive) in [11]; > 100 µM (inactive) in experiment [12]. The GI50 was > 100 µM (inactive) in experiment [13]; > 100 µM (inactive) in experiment [14]; > 100 µM (inactive) in experiment [15]; 87.1 µM (inactive) in [16]; > 100 µM (inactive) in experiment [17]; > 100 µM (inactive) in [18]. Further, the GI50 in [19] is 42.5 µM (inactive).

On to `c1ccc2c(c1)CC1COc3ccccc3C1O2` (stereo unspecified), for which the GI50 in experiment [1] was > 100 µM (inactive); in [2] it was 42.3 µM (inactive); in [3] it was 45.8 µM (inactive); in [4], > 100 µM (inactive); in experiment [5] it was 56.6 µM (inactive); in experiment [20], 86.1 µM (inactive). In addition, the GI50 was 44.2 µM (inactive) in [6]; 47.4 µM (inactive) in [7]; 30.3 µM (inactive) in experiment [8]; 67.1 µM (inactive) in experiment [9]; 67.8 µM (inactive) in experiment [10]; > 100 µM (inactive) in experiment [11]. The GI50 in [12] was 70.6 µM (inactive); in [13], 27.5 µM (inactive); in experiment [15], 17.4 µM (inactive); in experiment [16], 88.1 µM (inactive); in [17], 46.8 µM (inactive); in experiment [18], 54.3 µM (inactive). In experiment [19], the GI50 was 51.1 µM (inactive).

Values taken from ChEMBL document CHEMBL1201862, “PubChem BioAssay data set” (2004).
